Source: ChEMBL document CHEMBL1201862, “PubChem BioAssay data set” (2004)
Active and inactive are the calls of the source.

Legend:
Cytochrome P450 1A2 = target: T1, Cytochrome P450 1A2 (Homo sapiens, UniProt P05177);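 note: PubChem cytochrome P450 panel assay, CYP1A2 panel member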
T1 sequence (P05177 whole entry): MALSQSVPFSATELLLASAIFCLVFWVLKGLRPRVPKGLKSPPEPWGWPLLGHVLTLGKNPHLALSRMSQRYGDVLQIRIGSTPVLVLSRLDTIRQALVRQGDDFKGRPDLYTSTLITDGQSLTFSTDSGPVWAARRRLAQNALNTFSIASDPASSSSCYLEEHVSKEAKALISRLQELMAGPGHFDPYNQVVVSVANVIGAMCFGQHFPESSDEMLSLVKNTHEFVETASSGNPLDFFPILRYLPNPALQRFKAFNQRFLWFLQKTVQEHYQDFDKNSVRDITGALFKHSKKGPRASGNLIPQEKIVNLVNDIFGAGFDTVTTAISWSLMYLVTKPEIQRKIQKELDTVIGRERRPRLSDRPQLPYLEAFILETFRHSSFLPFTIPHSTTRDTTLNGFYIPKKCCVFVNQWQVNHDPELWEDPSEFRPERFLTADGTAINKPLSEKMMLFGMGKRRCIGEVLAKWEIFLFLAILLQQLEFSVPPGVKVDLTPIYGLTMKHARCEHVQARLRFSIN

Cytochrome P450 3A4 = Cytochrome P450 3A4 (Homo sapiens, UniProt P08684);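 note: CYP3A4 tested as one member of a cytochrome P450 panel screen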
Chain of Cytochrome P450 3A4 (P08684 whole entry): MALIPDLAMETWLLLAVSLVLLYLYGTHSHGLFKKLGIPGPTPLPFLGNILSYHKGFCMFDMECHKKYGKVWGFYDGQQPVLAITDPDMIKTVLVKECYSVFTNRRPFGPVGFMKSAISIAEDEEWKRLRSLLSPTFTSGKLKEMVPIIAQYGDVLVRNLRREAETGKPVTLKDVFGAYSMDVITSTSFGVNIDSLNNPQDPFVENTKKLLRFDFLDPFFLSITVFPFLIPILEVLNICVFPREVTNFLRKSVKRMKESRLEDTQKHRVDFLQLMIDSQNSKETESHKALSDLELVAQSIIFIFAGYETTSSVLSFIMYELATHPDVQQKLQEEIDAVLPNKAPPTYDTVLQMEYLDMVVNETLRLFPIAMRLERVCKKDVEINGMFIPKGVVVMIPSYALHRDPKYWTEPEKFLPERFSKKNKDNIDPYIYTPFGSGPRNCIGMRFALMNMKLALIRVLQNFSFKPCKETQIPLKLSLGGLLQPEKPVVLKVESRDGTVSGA

[1] = target: Dual specificity tyrosine-phosphorylation-regulated kinase 1A (Rattus norvegicus, UniProt Q63470); assay type: biochemical, Homo sapiens; conditions: read-out: AC50
Vero [2] = assay: cells; assay type: functional; conditions: Chlorocebus sabaeus
Vero [3] = assay: cells; assay type: functional, cell-based; conditions: Chlorocebus sabaeus
Cytochrome P450 2C9 = Cytochrome P450 2C9 (Homo sapiens, UniProt P11712)
Chain of Cytochrome P450 2C9 (P11712 whole entry): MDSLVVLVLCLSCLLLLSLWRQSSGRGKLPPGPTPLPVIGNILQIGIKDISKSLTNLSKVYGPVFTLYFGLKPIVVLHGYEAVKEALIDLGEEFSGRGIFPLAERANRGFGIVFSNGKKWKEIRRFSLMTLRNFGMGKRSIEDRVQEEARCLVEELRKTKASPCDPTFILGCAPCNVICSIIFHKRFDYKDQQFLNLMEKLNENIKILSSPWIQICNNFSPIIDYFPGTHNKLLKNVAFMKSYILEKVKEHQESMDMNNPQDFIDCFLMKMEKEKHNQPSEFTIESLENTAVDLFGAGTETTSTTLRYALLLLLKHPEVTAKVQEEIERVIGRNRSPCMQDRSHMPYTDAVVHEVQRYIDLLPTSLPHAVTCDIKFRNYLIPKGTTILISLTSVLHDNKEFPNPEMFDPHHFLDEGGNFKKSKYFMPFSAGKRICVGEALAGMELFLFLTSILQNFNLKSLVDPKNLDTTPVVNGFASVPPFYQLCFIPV

HEK293 [4] = assay: cells; conditions: Homo sapiens
[5] = target: T2, Calpain-2 catalytic subunit (Sus scrofa, UniProt P43367); assay: m-calpain protease blockers, concentration series – biochemical, fluorogenic peptide substrate, dose response (AID 1420); assay type: functional
T2 sequence (P43367 whole entry): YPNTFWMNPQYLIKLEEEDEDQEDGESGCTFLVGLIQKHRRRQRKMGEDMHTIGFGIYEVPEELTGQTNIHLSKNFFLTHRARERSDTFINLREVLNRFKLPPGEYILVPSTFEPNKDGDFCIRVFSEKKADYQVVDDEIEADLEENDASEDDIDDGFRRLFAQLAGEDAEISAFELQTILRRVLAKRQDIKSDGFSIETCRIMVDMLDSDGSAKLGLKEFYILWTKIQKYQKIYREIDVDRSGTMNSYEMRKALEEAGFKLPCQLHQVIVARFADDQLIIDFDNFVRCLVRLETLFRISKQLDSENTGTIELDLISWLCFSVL

HEK293 [6] = assay: cells; conditions: Homo sapiens; remark: listed apart in the source
[7] = target: T3, Nucleotide-binding oligomerization domain-containing protein 1 (Homo sapiens, UniProt Q9Y239); assay: blockers of NOD1 pathway activity – revised, SAR follow-up (AID 2333); assay type: functional
T3 sequence (Q9Y239 whole entry): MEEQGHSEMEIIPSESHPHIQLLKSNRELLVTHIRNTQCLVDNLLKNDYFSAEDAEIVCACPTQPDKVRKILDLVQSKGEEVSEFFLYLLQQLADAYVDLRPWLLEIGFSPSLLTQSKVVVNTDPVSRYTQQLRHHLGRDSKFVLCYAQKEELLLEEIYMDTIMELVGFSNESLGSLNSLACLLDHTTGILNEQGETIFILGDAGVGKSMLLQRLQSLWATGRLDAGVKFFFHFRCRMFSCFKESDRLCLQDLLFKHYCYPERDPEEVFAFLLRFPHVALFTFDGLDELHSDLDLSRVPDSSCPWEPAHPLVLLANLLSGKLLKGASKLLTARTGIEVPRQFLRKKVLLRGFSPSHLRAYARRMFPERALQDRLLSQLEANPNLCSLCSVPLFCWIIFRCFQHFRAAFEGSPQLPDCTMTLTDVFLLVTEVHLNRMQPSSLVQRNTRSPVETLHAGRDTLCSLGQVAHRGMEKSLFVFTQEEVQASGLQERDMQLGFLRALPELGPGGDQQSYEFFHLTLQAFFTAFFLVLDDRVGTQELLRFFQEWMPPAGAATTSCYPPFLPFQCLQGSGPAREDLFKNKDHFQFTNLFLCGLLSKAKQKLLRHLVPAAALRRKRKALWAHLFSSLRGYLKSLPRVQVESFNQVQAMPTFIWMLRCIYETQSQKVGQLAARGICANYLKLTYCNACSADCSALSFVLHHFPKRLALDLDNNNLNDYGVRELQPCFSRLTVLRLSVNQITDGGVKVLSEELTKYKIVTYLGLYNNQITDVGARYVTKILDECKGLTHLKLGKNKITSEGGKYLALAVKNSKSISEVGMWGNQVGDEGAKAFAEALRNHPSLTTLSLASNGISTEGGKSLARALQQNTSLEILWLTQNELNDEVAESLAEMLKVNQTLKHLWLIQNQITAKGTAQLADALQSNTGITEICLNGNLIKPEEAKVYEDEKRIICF

HEK293 [8] = assay: cells; conditions: Homo sapiens; remark: listed apart in the source
HEK293 [9] = assay: NOD2 signaling inhibitors in MDP-stimulated cells, cell-based, uHTS, luminescence (AID 2001); assay type: functional; conditions: Homo sapiens
HEK293 [10] = assay: inhibition of NOD1-driven NF-kB reporter – cell-based, luminescence, uHTS, primary screen (AID 1578); assay type: functional; conditions: Homo sapiens
HEK293 [11] = assay: cells; assay type: functional, cell-based; conditions: Homo sapiens
Tumor necrosis factor = Tumor necrosis factor (Homo sapiens, UniProt P01375); assay: analog potency on TNFa NF-kB signaling – cell-based, revised, SAR follow-up (AID 2337); assay type: functional
Chain of Tumor necrosis factor (P01375 whole entry): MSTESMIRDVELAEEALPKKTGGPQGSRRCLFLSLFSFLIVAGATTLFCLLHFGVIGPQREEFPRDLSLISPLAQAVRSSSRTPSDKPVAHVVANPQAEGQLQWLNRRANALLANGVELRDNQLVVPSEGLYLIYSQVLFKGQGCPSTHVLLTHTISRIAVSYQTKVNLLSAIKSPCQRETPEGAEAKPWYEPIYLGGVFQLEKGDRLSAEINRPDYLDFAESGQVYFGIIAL

HEK293 [12] = assay: cells; assay type: functional, cell-based; conditions: Homo sapiens; remark: listed apart in the source
[13] = target: T4, Carboxy-terminal domain RNA polymerase II polypeptide A small phosphatase 1 (Homo sapiens, UniProt Q9GZU7); assay: CTDSP1 inhibitors, concentration-response, biochemical, absorbance readout, ultra-high-throughput screen actives (AID 540297); assay type: functional
T4 sequence (Q9GZU7 whole entry): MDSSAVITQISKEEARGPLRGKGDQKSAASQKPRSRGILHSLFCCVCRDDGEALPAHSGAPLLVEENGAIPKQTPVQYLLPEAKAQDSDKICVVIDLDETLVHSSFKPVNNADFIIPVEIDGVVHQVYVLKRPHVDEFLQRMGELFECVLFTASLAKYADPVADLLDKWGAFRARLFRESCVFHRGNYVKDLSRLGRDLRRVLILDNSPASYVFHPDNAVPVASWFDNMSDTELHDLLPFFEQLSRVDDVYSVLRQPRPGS

[14] = target: T5, Rac GTPase-activating protein 1 (Homo sapiens, UniProt Q9H0H5); assay: blockers of MgcRacGAP-driven Rac1 GTP hydrolysis – biochemical, ADP Hunter fluorescence, primary and confirmatory, confirmation (AID 624330); assay type: functional
T5 sequence (Q9H0H5 whole entry): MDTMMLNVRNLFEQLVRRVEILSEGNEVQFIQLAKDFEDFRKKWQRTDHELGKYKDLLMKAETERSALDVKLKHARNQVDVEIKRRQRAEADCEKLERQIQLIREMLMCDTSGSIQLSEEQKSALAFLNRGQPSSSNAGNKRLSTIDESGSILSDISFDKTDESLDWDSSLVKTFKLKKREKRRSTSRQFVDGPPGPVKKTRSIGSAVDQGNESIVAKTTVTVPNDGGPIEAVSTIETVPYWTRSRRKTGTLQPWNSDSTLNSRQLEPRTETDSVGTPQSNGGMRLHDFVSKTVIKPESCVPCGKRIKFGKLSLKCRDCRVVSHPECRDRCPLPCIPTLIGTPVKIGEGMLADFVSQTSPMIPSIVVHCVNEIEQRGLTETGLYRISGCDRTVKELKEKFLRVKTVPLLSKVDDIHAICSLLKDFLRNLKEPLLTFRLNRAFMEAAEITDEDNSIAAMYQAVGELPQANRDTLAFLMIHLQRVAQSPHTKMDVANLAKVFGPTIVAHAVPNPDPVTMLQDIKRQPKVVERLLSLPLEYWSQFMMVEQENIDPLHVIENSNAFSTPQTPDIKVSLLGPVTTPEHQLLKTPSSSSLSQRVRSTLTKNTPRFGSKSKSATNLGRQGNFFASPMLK

Cc1c(-c2ccc(F)cc2)nc(N)c(C#N)c1-c1cccs1
AC50 (Cytochrome P450 1A2): 1.78 µM (inconclusive)
AC50 (Cytochrome P450 3A4): inconclusive

O=C(Nc1cccc(-c2nc3ncccc3o2)c1)c1cc2ccccc2o1
AC50 [1]: 0.942 µM (active)

Cc1cccnc1NC(=O)NC(=O)c1ccc(C(C)(C)C)s1
CC50 (Vero [2]): > 25 µM (active)
IC50 (Vero [3]): 22.4 µM (active)

O=C(c1cccc(F)c1)N1CCC2(CC1)CCN(c1ccncc1)CC2
AC50 (Cytochrome P450 3A4): inconclusive
AC50 (Cytochrome P450 2C9): 25.1 µM (inconclusive)

O=C(NC1CCCC1)C(c1ccsc1)N(Cc1ccccc1)C(=O)Cc1cccs1 (centres undefined)
EC50 (HEK293 [4]): > 59.7 µM (inactive)
IC50 [5]: > 50 µM (not active)
EC50 (HEK293 [6]): > 59.7 µM (inactive)

COc1ccc(C(O)P(=O)(OC(C)C)OC(C)C)cc1OC (centres undefined)
AC50 (Cytochrome P450 1A2): 11.2 µM (inconclusive)
AC50 (Cytochrome P450 3A4): inconclusive

COc1ccc(N2CCN(S(=O)(=O)c3ccc4c(c3)NC(=O)C(C)S4)CC2)cc1 (centres undefined)
IC50 [7]: 4.54 µM (active)
IC50 (HEK293 [8]): > 20 µM (inactive)
IC50 (HEK293 [9]): 7.5 µM (active)
EC50 (HEK293 [10]): 4.87 µM (active)
IC50 (HEK293 [11]): 4.28 µM (active)
IC50 (Tumor necrosis factor): 10.2 µM (active)
IC50 (HEK293 [12]): 12.6 µM (active)

Cn1c2ccccc2c(=O)c2ccc(C#CC3(N)CCCCC3)cc21
AC50 [1]: 23.7 µM (active)

N#CCC(=O)Nc1ccc(C(=O)OCC(=O)Nc2ccc3ccccc3c2)cc1
IC50 [13]: 68.5 µM (active)

O=C1OC(c2ccc3c(c2)OCO3)=N/C1=C\c1ccc(C(=O)O)cc1
IC50 [13]: 1.38 µM (active)

CC(C)OP(=O)(c1ccc(N(C)C)cc1)C(Nc1ccccc1)c1ccccc1 (centres undefined)
EC50 (HEK293 [4]): > 59.6 µM (inactive)
EC50 (HEK293 [6]): > 59.6 µM (inactive)

COc1nc(N)nc(NC(=O)c2cccs2)c1N=O
EC50 (HEK293 [4]): > 59.6 µM (inactive)
IC50 [14]: 116 µM (active)
EC50 (HEK293 [6]): > 59.6 µM (inactive)

CN(C)N=Nc1nc2c(c(=O)n(C)c(=O)n2C)n1CC1CO1 (centres undefined)
CC50 (Vero [2]): > 25 µM (active)
IC50 (Vero [3]): 21.9 µM (active)

COc1ccc(OC(F)(F)F)cc1CC1(C)C(=O)Nc2ccc(S(=O)(=O)NC3CCCCC3)cc21 (centres undefined)
EC50 (HEK293 [4]): > 59.6 µM (inactive)
EC50 (HEK293 [6]): > 59.6 µM (inactive)

O=C(/C=C/c1ccccc1O)c1ccc(Cl)cc1
CC50 (Vero [2]): 19.6 µM (active)

COc1ccc(/C=N/Nc2ncc(Br)cn2)c(OC)c1
IC50 [13]: 19.6 µM (active)

COc1ccc(-c2coc3cc(O)ccc3c2=O)cc1O [CALYCOSIN]
AC50 [1]: 16.1 µM (active)
